# In US20240083844A1, “KINASE INHIBITORS AND USES THEREOF” (ABM Therapeutics Corporation, priority 2020, published 2024):
# Tests used:
# HT-29 colon cancer cells = test: Antiproliferation assay in HT-29 cells (CellTiter Glo); type: cell-based; conditions: Homo sapiens, 72 hours or 144 hours
# Experimental: [The source words this procedure for another cell line and reports this cell line under the same test.] (§1) In vitro anti-proliferation study of test compounds in A375 cell line by CellTiter Glo. The cells were routinely maintained as a monolayer culture in corresponding culture medium, at 37° C. with 5% CO2 in air.
# (§2) Exponential growth cells were harvested by trypsin-EDTA digestion. Cell pellet was re-suspended in fresh culture medium, and the concentration adjusted as needed (the cell density per well was listed in following form). The cell viability was over 98% by Trypan blue staining. Cells were incoluated into 96 wells plates according to the plate map (90 μL/well). Plates were incubated at 37° C. and 5% CO2 overnight. The next day, the 10×compound containing medium was prepared according to the plate map. 10 μL of 10×compound containing medium was transferred into each well of the assay plates (the final DMSO concentration was 0.5%). The medium was gently mixed and incubated at 37° C. and 5% CO2 for another 72 hours or 144 hours.
# (§3) Reagent was prepared according to the manufacture's instruction. 50 μL CellTiter-Glo Reagent were added in each well. Contents were mixed for 2 minutes on an orbital shaker to induce cell lysis. The plate was incubated at room temperature for 10 minutes to stabilize luminescent signal. 100 μL of reaction contents were transferred of each well from the clear plates into white walled/white opaque 96-well plates. Luminescence was recorded on Envision.
# (§4) Using the luminescence measurements [time zero (T0), control growth (C), and test growth in the presence of drug at the six concentration levels (Ti)], the percentage growth was calculated at each of the drug concentrations levels.
# (§5) Percentage growth inhibition (GI) was calculated as: GI (%)=[(Ti−T0)/(C-T0)]×100 for concentrations for which Ti>=T0, and GI (%)=[(Ti−T0)/T0]×100 for concentrations for which Ti<T0. Data were analyzed using the XLFit (Excel) tool, fitting to a 4-parameter equation to generate concentration response curves. Concentration of compound that inhibits 50% of control cell growth (GI50) was back-interpolated when y=50% of net growth of DMSO treated control wells using nonlinear regression with the equation: f(x) 205 [fit=(A+((B−A)/(1+((C/x)^D))))], where A is the minimum response (Ymin), B is the maximum response (Ymax), C is the inflection point of the curve (Re GI50) and D is the Hill coefficient. Growth inhibition of 50% (GI50) was calculated at the 50% Growth inhibition on the curve. Index values were the sum of Inhibition rate (IR) at each tested compound concentration.
# A375 melanoma cells = test: Antiproliferation assay in A375 cell line by CellTiter Glo; type: cell-based; conditions: Homo sapiens, A-375, 72 hours or 144 hours
# Experimental: as §1, §2, §3, §4, §5
# P-glycoprotein (MDR1) = test: MDCK-MDR1 permeability assay; type: in vitro ADME, canine; conditions: dog; for efflux ratio at 120 min: MDCK-MDR1, Papp(B−A)/Papp(A−B); for Papp A→B at 120 min: MDCK-MDR1, apical to basolateral; for Papp A→B at 120 min / Papp B→A at 120 min: 1-30 μM; for Papp B→A at 120 min: MDCK-MDR1, basolateral to apical
# Experimental: MDCK-MDR1 cells originated from transfection of Madin Darby canine kidney (MDCK) cells with the MDR1 gene, the gene encoding for the efflux protein, P-glycoprotein. This cell line is ideal for identifying substrates of P-gp, with or without an inhibitor. The cells were seeded on a Multiscreen™ plate to form a confluent monolayer over 4 days prior to the experiment. On day 4, the test compound (1-30 μM concentration) was added to the apical side of the membrane and the transport of the compound across the monolayer was monitored over a 120 minutes time period. To study drug efflux, it was also necessary to investigate transport of the compound from the basolateral compartment to the apical compartment and calculate an efflux ratio.
# (§6) The permeability coefficient (Papp) was calculated from the following equation: […]
# where dQ/dt is the rate of permeation of the drug across the cells, C0 is the donor compartment concentration at time zero and A is the area of the cell monolayer.
# An efflux ratio was calculated from the mean apical to basolateral (A−B) Papp data and basolateral to apical (B−A) Papp data.
# Efflux Ratio=Papp(B−A)/Papp(A−B)
# [1] = Mouse pharmacokinetics study; type: in vivo; conditions: CD-1 mice; for F / AUC / Cmax / Tmax: PO 25 mg/kg; for Vd / half-life / clearance / AUC / Cmax / Tmax: mouse, plasma; for Vd / half-life / clearance: IV 5 mg/kg; for half-life: 20% Hydroxypropyl-beta-cyclodextrin; for clearance: read-out: Clp
# Source text: The pharmacokinetic properties of Compounds 5 and 6 was studied in CD-1 mice via intravenous and oral administration by using a standard protocol. The test articles were formulated in 20% Hydroxypropyl-beta-cyclodextrin, either as a clear solution or fine suspension.
# [2] = Caco-2 permeability assay; type: in vitro ADME; conditions: human; for efflux ratio at 120 min: Caco-2; for Papp A→B at 120 min: Caco-2, apical to basolateral; for Papp A→B at 120 min / Papp B→A at 120 min: 1-30 uM; for Papp B→A at 120 min: Caco-2, basolateral to apical
# Experimental: Caco-2 cells are widely used as an in vitro assay to measure the permeability of a drug compound. The Caco-2 cell line is derived from a human colorectal carcinoma, and when cultured, the cells spontaneously differentiate into monolayers of polarized enterocytes. Caco-2 cells express P-glycoprotein and breast cancer resistance protein, two of the most relevant cell membrane active transporters that affect drug compound's permeability into cells and blood brain barrier.
# The cells were seeded on Millipore Millicell plates and formed a confluent monolayer over 20 days prior to the experiment. On day 20, the test compound (1-30 uM concentration) was added to the apical side of the membrane and the transport of the compound across the monolayer was monitored over a 120 minutes time period. To study drug efflux, it was also necessary to investigate transport of the compound from the basolateral compartment to the apical compartment.
# as §6
# where dQ/dt is the rate of permeation of the drug across the cells, C0 is the donor compartment concentration at time zero and A is the area of the cell monolayer. C0 is obtained from analysis of the dosing solution at the start experiment.
GI50 (HT-29 colon cancer cells),GI50 (A375 melanoma cells),efflux ratio at 120 min (P-glycoprotein (MDR1)),Papp A→B at 120 min (P-glycoprotein (MDR1)),Papp B→A at 120 min (P-glycoprotein (MDR1)),SMILES,also measured
> 1000 nM,100 to 1000 nM,,,,"O=C(NC1CNC1)c1c(F)cc(F)cc1Nc1ccc(I)cc1F [Compound 1, N-(azetidin-3-yl)-2,4-difluoro-6-((2-fluoro-4-iodophenyl)amino)benzamide]",
,> 1000 nM,,,,"O=C(NC1CCNC1)c1c(F)cc(F)cc1Nc1ccc(I)cc1F (stereo not shown) [Compound 2, 2,4-difluoro-6-((2-fluoro-4-iodophenyl)amino)-N-(pyrrolidin-3-yl)benzamide]",
,> 1000 nM,,,,"O=C(NC1CCCNC1)c1c(F)cc(F)cc1Nc1ccc(I)cc1F (stereo not shown) [Compound 3, 2,4-difluoro-6-((2-fluoro-4-iodophenyl)amino)-N-(piperidin-3-yl)benzamide]",
> 1000 nM,100 to 1000 nM,,,,"O=C(NC1CNC1)c1c(F)c(F)c(F)c(F)c1Nc1ccc(I)cc1F [Compound 4, N-(azetidin-3-yl)-2,3,4,5-tetrafluoro-6-((2-fluoro-4-iodophenyl)amino)benzamide]",
< 100 nM,< 100 nM,3.42,10.5 ×10⁻⁶ cm/s,36 ×10⁻⁶ cm/s,"O=C(NC1CNC1)c1c(F)cncc1Nc1ccc(I)cc1F [Compound 5, N-(azetidin-3-yl)-3-fluoro-5-((2-fluoro-4-iodophenyl)amino)isonicotinamide]",
< 100 nM,< 100 nM,0.53,34.1 ×10⁻⁶ cm/s,18 ×10⁻⁶ cm/s,"CCN1CC(NC(=O)c2c(F)cncc2Nc2ccc(I)cc2F)C1 [Compound 6, N-(1-ethylazetidin-3-yl)-3-fluoro-5-((2-fluoro-4-iodophenyl)amino)isonicotinamide]",F [1]: 62.1 ± 11.4%; Vd [1]: 4.2 ± 0.33 L/kg; half-life [1]: 37.5 ± 2.58 min; clearance [1]: 77.8 ± 8 mL/min/kg; AUC [1]: 3160 ± 641 ng·h/mL; Cmax [1]: 1070 ± 328 ng/mL; Tmax [1]: 30 min; efflux ratio at 120 min [2]: 0.47; Papp A→B at 120 min [2]: 89.3 ×10⁻⁶ cm/s; Papp B→A at 120 min [2]: 42.3 ×10⁻⁶ cm/s
,< 100 nM,0.58,32.5 ×10⁻⁶ cm/s,19 ×10⁻⁶ cm/s,"CN1CC(NC(=O)c2c(F)cncc2Nc2ccc(I)cc2F)C1 [Compound 7, 3-fluoro-5-((2-fluoro-4-iodophenyl)amino)-N-(1-methylazetidin-3-yl)isonicotinamide]",
< 100 nM,,,,,"O=C(NC1CN(CCF)C1)c1c(F)cncc1Nc1ccc(I)cc1F [Compound 9, 3-fluoro-5-((2-fluoro-4-iodophenyl)amino)-N-(1-(2-fluoroethyl)azetidin-3-yl)isonicotinamide]",
< 100 nM,< 100 nM,4.08,14.6 ×10⁻⁶ cm/s,59.5 ×10⁻⁶ cm/s,"C#Cc1ccc(Nc2cncc(F)c2C(=O)NC2CNC2)c(F)c1 [Compound 11, N-(azetidin-3-yl)-3-((4-ethynyl-2-fluorophenyl)amino)-5-fluoroisonicotinamide]",F [1]: 93.1 ± 6.0%; Vd [1]: 67.7 ± 13.9 L/kg; half-life [1]: 542 ± 41.4 min; clearance [1]: 86 ± 12 mL/min/kg; AUC [1]: 4550 ± 301 ng·h/mL; Cmax [1]: 1700 ± 95 ng/mL; Tmax [1]: 40.2 ± 17.4 min; efflux ratio at 120 min [2]: 2.33; Papp A→B at 120 min [2]: 8.79 ×10⁻⁶ cm/s; Papp B→A at 120 min [2]: 20.5 ×10⁻⁶ cm/s
100 to 1000 nM,100 to 1000 nM,,,,"C#Cc1ccc(Nc2cncc(F)c2C(=O)NC2CN(CC)C2)c(F)c1 [Compound 12, N-(1-ethylazetidin-3-yl)-3-((4-ethynyl-2-fluorophenyl)amino)-5-fluoroisonicotinamide]",
,< 100 nM,11.8,4.3 ×10⁻⁶ cm/s,50.8 ×10⁻⁶ cm/s,"O=C(NC1CNC1)c1c(Cl)cncc1Nc1ccc(I)cc1F [Compound 13, N-(azetidin-3-yl)-3-chloro-5-((2-fluoro-4-iodophenyl)amino)isonicotinamide]",
> 1000 nM,100 to 1000 nM,,,,"O=C(NC1CNC1)c1c(F)cncc1Nc1ccc(Br)cc1Cl [Compound 14, N-(azetidin-3-yl)-3-((4-bromo-2-chlorophenyl)amino)-5-fluoroisonicotinamide]",
< 100 nM,,,,,"O=C(NC1CNC1)c1ccncc1Nc1ccc(I)cc1F [Compound 15, N-(azetidin-3-yl)-3-((2-fluoro-4-iodophenyl)amino)isonicotinamide]",
,> 1000 nM,,,,"O=C(O)CCN1CC(NC(=O)c2ccncc2Nc2ccc(I)cc2F)C1 [Compound 18, 3-(3-(3-((2-fluoro-4-iodophenyl)amino)isonicotinamido)azetidin-1-yl)propanoic acid]",
,100 to 1000 nM,,,,"O=C(O)CCCN1CC(NC(=O)c2ccncc2Nc2ccc(I)cc2F)C1 [Compound 19, 4-(3-(3-((2-fluoro-4-iodophenyl)amino)isonicotinamido)azetidin-1-yl)butanoic acid]",
,> 1000 nM,,,,"CC(=O)N1CC(NC(=O)c2c(F)cncc2Nc2ccc(I)cc2F)C1 [Compound 20, N-(1-acetylazetidin-3-yl)-3-fluoro-5-((2-fluoro-4-iodophenyl)amino)isonicotinamide]",
